Among the test systems are LOX IMVI melanoma; COLO 205 colon; UACC-62 melanoma; SK-MEL-28 melanoma; RXF 393 renal; LXFL 529 NSCLC; OVCAR-3 ovarian; IGROV1 ovarian; CCRF-CEM leukemia; NCI-H460 lung; SK-MEL-2 melanoma; CAKI-1 renal; MDA-MB-435.
Common to all, as to test: growth of human tumour cells (NCI), 48 h

The structures appear in SMILES notation.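 In this assay, cells in 96-well plates receive the compound at five concentrations for 48 hours. Endpoints are linearly interpolated between the surrounding concentrations. GI50 marks 50% less growth. Definition used: TGI = concentration required for complete inhibition of growth.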 Where only a bound is given, the exact number is not on record here.

As for `COC(=O)N/N=C/c1oc(-c2cccc([N+](=O)[O-])c2)c(-c2cccc([N+](=O)[O-])c2)c1[N+](=O)[O-]`, the TGI with LOX IMVI melanoma, with COLO 205 colon, in the test on UACC-62 melanoma, in the test on SK-MEL-28 melanoma, in the test on RXF 393 renal and in the test on LXFL 529 NSCLC was more than 100 µM each time. The TGI in the test with OVCAR-3 ovarian was more than 100 µM; in the test on IGROV1 ovarian it was more than 100 µM; in the test on CCRF-CEM leukemia, 78.3 µM; with NCI-H460 lung, more than 100 µM.
For the compound `COC(=O)c1c(C(=O)OC)c2cc(C(=O)c3ccccc3)ccn2c1Cl`, the TGI with LOX IMVI melanoma was more than 100 µM; in the test with COLO 205 colon, more than 100 µM; with UACC-62 melanoma, 88.4 µM; in the test on SK-MEL-28 melanoma, more than 100 µM; in the test with RXF 393 renal, 85 µM; with LXFL 529 NSCLC, more than 100 µM. Besides, the TGI in the test with OVCAR-3 ovarian was 63.1 µM; with IGROV1 ovarian, more than 100 µM; in the test with CCRF-CEM leukemia, 78 µM; in the test on NCI-H460 lung, more than 100 µM; in the test with SK-MEL-2 melanoma, more than 100 µM.
For `COc1ccc(C2C(Cl)C(=O)N2NC(=O)Cc2ccccc2)cc1` (centres undefined), the TGI in the test on LOX IMVI melanoma, with COLO 205 colon, in the test on UACC-62 melanoma, in the test with SK-MEL-28 melanoma, in the test with RXF 393 renal and in the test on LXFL 529 NSCLC was more than 100 µM each time. The TGI in the test on OVCAR-3 ovarian, in the test with IGROV1 ovarian, in the test with CAKI-1 renal, in the test on CCRF-CEM leukemia, in the test with NCI-H460 lung and with SK-MEL-2 melanoma was more than 100 µM throughout.
For the compound `[N-]=[N+]=NC1C(Br)C(=O)NC(=O)N1[C@H]1C[C@H](O)[C@@H](CO)O1` (some centres undefined), the TGI in the test on LOX IMVI melanoma, in the test on COLO 205 colon, in the test with UACC-62 melanoma, in the test on SK-MEL-28 melanoma, in the test on RXF 393 renal and in the test on LXFL 529 NSCLC was more than 100 µM each time. The TGI in the test on OVCAR-3 ovarian, with IGROV1 ovarian, with CAKI-1 renal, in the test on CCRF-CEM leukemia, in the test with NCI-H460 lung and with SK-MEL-2 melanoma was more than 100 µM each time. Further, the figures for the GI50 in the test on CAKI-1 renal and in the test with CCRF-CEM leukemia were 66.3 µM and 38 µM, respectively.
For the compound `Cc1cc2c(s1)C(=O)c1sccc1C2=O`, the TGI in the test on LOX IMVI melanoma was determined as 0.422 µM; in the test with COLO 205 colon it was 3.36 µM; with MDA-MB-435, 0.318 µM; in the test with UACC-62 melanoma it was 0.524 µM; in the test on SK-MEL-28 melanoma it was 0.377 µM; in the test on RXF 393 renal, 2.46 µM. Besides, the TGI in the test on LXFL 529 NSCLC is 2.5 µM; with OVCAR-3 ovarian, 2.19 µM; with IGROV1 ovarian it was 3.05 µM; with CAKI-1 renal, 3.17 µM; with CCRF-CEM leukemia, more than 100 µM; in the test with NCI-H460 lung, 3.23 µM. This compound also yielded a TGI with SK-MEL-2 melanoma of 1.33 µM.
As to `COC[n+]1cc2cc(OC)c(OC)cc2c2ccc3cc(OC)c(OC)cc3c21`, the TGI with LOX IMVI melanoma, with COLO 205 colon, with UACC-62 melanoma, in the test on SK-MEL-28 melanoma, in the test with RXF 393 renal and with LXFL 529 NSCLC was more than 100 µM throughout. Moreover, the TGI with OVCAR-3 ovarian, in the test on IGROV1 ovarian, in the test on CAKI-1 renal, with CCRF-CEM leukemia, in the test on NCI-H460 lung and with SK-MEL-2 melanoma was more than 100 µM each time.
Turning to `CCN(CC)Cc1cc(Nc2c3ccccc3nc3c2[nH]c2ccccc23)ccc1O`, the TGI in the test on LOX IMVI melanoma worked out at 2.57 µM; with COLO 205 colon it was 2.19 µM; with UACC-62 melanoma, 3.01 µM; in the test on SK-MEL-28 melanoma it was 3.47 µM; in the test on RXF 393 renal, 2.77 µM; with LXFL 529 NSCLC, 3.02 µM. For the same compound, the TGI in the test on IGROV1 ovarian was 4.49 µM; with CAKI-1 renal, 4.2 µM; with NCI-H460 lung, 2.71 µM; with SK-MEL-2 melanoma, 2.75 µM.
For `CCCCc1c2c(nc3c1CCC/C3=C\c1ccccc1)C(=O)C(CN(C)C)CC2` (centres undefined), the TGI with LOX IMVI melanoma amounted to 30.9 µM; with COLO 205 colon, 36.6 µM; in the test on MDA-MB-435, 37.2 µM; in the test with UACC-62 melanoma it was 48.4 µM; in the test on SK-MEL-28 melanoma it was 28.3 µM; in the test with RXF 393 renal, 30.9 µM. Further, the TGI stood at 21 µM in the test with LXFL 529 NSCLC; 39.9 µM in the test on OVCAR-3 ovarian; 36.9 µM in the test with IGROV1 ovarian; 33 µM in the test with CCRF-CEM leukemia; 34.5 µM with NCI-H460 lung; 39.4 µM in the test with SK-MEL-2 melanoma.
`N#CC12C3C4CC5C6C4C1C6C(O)(C53)N2Cc1ccccc1` (centres undefined): the TGI in the test with LOX IMVI melanoma, in the test with COLO 205 colon, in the test with UACC-62 melanoma, in the test on SK-MEL-28 melanoma, in the test on RXF 393 renal and in the test with LXFL 529 NSCLC was more than 100 µM throughout. Moreover, the TGI in the test on OVCAR-3 ovarian, in the test on IGROV1 ovarian, in the test with CAKI-1 renal, in the test on CCRF-CEM leukemia, in the test with NCI-H460 lung and in the test with SK-MEL-2 melanoma was more than 100 µM each time.
For the compound `COc1cc2[nH]c(-c3cccc(N(C)C)c3)cc(=O)c2cc1OC`, the TGI was more than 100 µM in the test with LOX IMVI melanoma; 19.1 µM with COLO 205 colon; more than 100 µM in the test on UACC-62 melanoma; more than 100 µM in the test on SK-MEL-28 melanoma; more than 100 µM in the test with LXFL 529 NSCLC; more than 100 µM in the test with IGROV1 ovarian. The TGI with CCRF-CEM leukemia and with NCI-H460 lung was more than 100 µM throughout.
Turning to `O=C(c1ccncc1)n1nc(-c2ccccc2)c(N=Nc2ccc([N+](=O)[O-])cc2)c1-c1ccccc1`, the TGI with COLO 205 colon is more than 100 µM; with UACC-62 melanoma, more than 100 µM; with SK-MEL-28 melanoma, more than 100 µM; in the test on LXFL 529 NSCLC it was 25.7 µM; in the test with OVCAR-3 ovarian, more than 100 µM; with IGROV1 ovarian, more than 100 µM. The TGI in the test with CAKI-1 renal and in the test with SK-MEL-2 melanoma was more than 100 µM throughout.
As to `Cc1cc2oc(=O)[nH]c(=S)c2c(C)c1C`, the TGI in the test on LOX IMVI melanoma, in the test on COLO 205 colon, in the test on UACC-62 melanoma, in the test with SK-MEL-28 melanoma, in the test on RXF 393 renal and with LXFL 529 NSCLC was more than 100 µM throughout. The TGI in the test on OVCAR-3 ovarian, with IGROV1 ovarian, in the test with CCRF-CEM leukemia, in the test with NCI-H460 lung and in the test on SK-MEL-2 melanoma was more than 100 µM throughout.
`CN(C)CCNc1ccc2c(=O)n(CCN(C)C)c(=O)n3c4ccc(N)cc4c(=O)c1c23`: the TGI in the test on LOX IMVI melanoma is 0.283 µM; with COLO 205 colon, 1.26 µM; with MDA-MB-435, 0.273 µM; in the test on UACC-62 melanoma it was 1.21 µM; in the test with SK-MEL-28 melanoma, 0.819 µM; in the test with RXF 393 renal, 0.263 µM. Moreover, the TGI is 1.22 µM in the test with OVCAR-3 ovarian; 0.534 µM in the test with IGROV1 ovarian; 4.76 µM in the test on CAKI-1 renal; 0.16 µM in the test with CCRF-CEM leukemia; 0.56 µM in the test with NCI-H460 lung; 0.496 µM in the test with SK-MEL-2 melanoma.
Take `CCOC(=O)CC[C@@H](NC(=O)c1ccc(N[C@@H]2c3cc4c(cc3C(c3cc(OC)c(O)c(OC)c3)C3C(=O)OC[C@@H]32)OCO4)cc1)C(=O)OCC` (some centres undefined): the TGI in the test on UACC-62 melanoma was 0.0557 µM; in the test with SK-MEL-28 melanoma it was 0.53 µM; with LXFL 529 NSCLC it was more than 10 µM; in the test with OVCAR-3 ovarian, 0.37 µM; in the test on IGROV1 ovarian it was 0.32 µM; in the test with CAKI-1 renal it was 0.0539 µM. Besides, the TGI was more than 10 µM with CCRF-CEM leukemia, 0.0174 µM in the test with NCI-H460 lung and 0.235 µM in the test with SK-MEL-2 melanoma.
For the compound `C=C[C@H]1CN2CCc3c([nH]c4c([C@H]5CCCN5C)c(O)ccc34)[C@@H]2C[C@@H]1C[C@H]1c2[nH]c3ccccc3c2CCN1C`, the TGI is 2.4 µM in the test with LOX IMVI melanoma; 2.83 µM in the test on COLO 205 colon; 2.83 µM in the test with MDA-MB-435; 3.16 µM in the test on UACC-62 melanoma; 3.3 µM in the test on SK-MEL-28 melanoma; 2.25 µM in the test on RXF 393 renal. Further, the TGI in the test on OVCAR-3 ovarian came out at 3 µM; with IGROV1 ovarian it was 3.04 µM; in the test on CAKI-1 renal, 3.17 µM; in the test with CCRF-CEM leukemia, 2.11 µM; in the test with NCI-H460 lung, 3.53 µM; in the test with SK-MEL-2 melanoma it was 3.53 µM. Further, in the test with NCI-H460 lung, the GI50 is 1.74 µM.
Consider `c1ccc(CCN(Cc2nc3ccccc3[nH]2)Cc2nc3ccccc3[nH]2)cc1`, for which the TGI in the test with LOX IMVI melanoma was 23.1 µM; in the test on COLO 205 colon, 31.2 µM; in the test with MDA-MB-435 it was 29.8 µM; in the test with UACC-62 melanoma, 28.3 µM; with SK-MEL-28 melanoma it was 30.4 µM; in the test on RXF 393 renal, 28.9 µM. Also, the TGI in the test with OVCAR-3 ovarian was 48.5 µM; in the test on IGROV1 ovarian, 17.8 µM; in the test with CAKI-1 renal it was 12.5 µM; in the test with CCRF-CEM leukemia, more than 100 µM; in the test with NCI-H460 lung it was 28.3 µM; with SK-MEL-2 melanoma, 36.6 µM.

(Values after PubChem BioAssay (NCI).)
